Legend:
Type in all cases: physicochemical
[1] = Stability of multivitamin soft capsules in container with channel former and absorbent embedded in the inside walls, 30° C./65% RH
Description: Multivitamin soft capsules (active-compound composition and capsule shell as described below) are introduced into a resealable container in/on the inside wall(s) of which at least one channel former is embedded, at least over part of the area, together with at least one absorbent (type: M-3006-16 Activ-Vial) in the inside walls of which a molecular sieve having a capacity of 1.92 g is embedded.
The multivitamin soft capsules are stored at 30° C. and 65% relative humidity (RH), removed from storage after predetermined times, assessed visually with respect to their appearance and investigated analytically with respect to the amounts of active compound present.

[2] = Stability of multivitamin soft capsules in PVC/PVDC-aluminium blister, 40° C./75% RH
Description: (§1) Multivitamin soft capsules (active-compound composition and capsule shell as described below) are introduced individually into a thermoformed cavity film made from PVC 250 μm+40 g/m^2 of PVDC and heat-sealed with aluminium foil (20 μm) and into a resealable container in/on the inside wall(s) of which at least one channel former is embedded, at least over part of the area, together with at least one absorbent (type: M-3006-16 Activ-Vial) in the inside walls of which a molecular sieve having a capacity of 1.92 g is embedded.
(§2) The blisters and containers containing the multivitamin soft capsules are stored at 40° C. and 75% relative humidity (RH), removed from storage after predetermined times, assessed visually with respect to their appearance and investigated analytically with respect to the amounts of active compound present. The results are compiled in Tables 1 and 2.

[3] = Stability of multivitamin soft capsules in container with channel former and absorbent embedded in the inside walls, 40° C./75% RH
Description: as §1, §2

[4] = Multivitamin soft capsule batch GD 06 0045, 6 months
[5] = Multivitamin soft capsule batch GD 06 0045, Start
[6] = Multivitamin soft capsule batch 9018401, 3 months
[7] = Multivitamin soft capsule batch 9018401, Start
[8] = Multivitamin soft capsule batch 9018802, 6 months
[9] = Multivitamin soft capsule batch 9018802, Start

Compound | amount of active compound present [1, 4] [mg/capsule] | amount of active compound present, % of start [1, 4] [%] | amount of active compound present [1, 5] [mg/capsule] | amount of active compound present, % of start [1, 5] [%] | amount of active compound present [2, 6] [mg/capsule] | amount of active compound present, % of start [2, 6] [%] | amount of active compound present [2, 7] [mg/capsule] | amount of active compound present, % of start [2, 7] [%] | amount of active compound present [3, 8] [mg/capsule] | amount of active compound present, % of start [3, 8] [%] | amount of active compound present [3, 9] [mg/capsule] | amount of active compound present, % of start [3, 9] [%]
CC1=C(/C=C/C(C)=C/C=C/C(C)=C/C=C/C=C(C)/C=C/C=C(C)/C=C/C2=C(C)CCCC2(C)C)C(C)(C)CCC1 [β-Carotene] | 2.0 | 87 | 2.3 | 100 |  |  |  |  |  |  |  | 
CC(=O)Oc1c(C)c(C)c2c(c1C)CCC(C)(CCC[C@H](C)CCC[C@H](C)CCCC(C)C)O2 (some centres unmarked) [Tocopherol acetate] | 19.8 | 99 | 20.0 | 100 |  |  |  |  |  |  |  | 
CC(C)(CO)[C@@H](O)C(=O)NCCC(=O)[O-].CC(C)(CO)[C@@H](O)C(=O)NCCC(=O)[O-].[Ca+2] [Calcium panthotenate] | 14.9 | 96 | 15.6 | 100 |  |  |  |  |  |  |  | 
Nc1nc2ncc(CNc3ccc(C(=O)N[C@@H](CCC(=O)O)C(=O)O)cc3)nc2c(=O)[nH]1 [Folic acid] | 0.603 | 104 | 0.581 | 100 | 0.57 | 92 | 0.62 | 100 | 0.520 | 87 | 0.60 | 100
NC(=O)c1cccnc1 [Nicotinamide] | 20.1 | 98 | 20.6 | 100 |  |  |  |  |  |  |  | 
CC(C)(CO)[C@@H](O)C(=O)NCCCO [Dexpanthenol] |  |  |  |  | 9.7 | 72 | 13.5 | 100 | 12.8 | 96 | 13.3 | 100
O=C1O[C@H]([C@@H](O)CO)C(O)=C1O [Ascorbic acid] | 115.0 | 95 | 120.5 | 100 | 159 | 76 | 209 | 100 | 210 | 99 | 213 | 100
Cc1ncc(CO)c(CO)c1O.Cl [Pyridoxine*HCL] | 3.39 | 94 | 3.60 | 100 |  |  |  |  |  |  |  | 
Cc1ncc(C[n+]2csc(CCO)c2C)c(N)n1.Cl.[Cl-] [Thiamine*HCL] |  |  |  |  | 17.1 | 87 | 19.7 | 100 | 19.3 | 98 | 19.6 | 100
Cc1cc2nc3c(=O)[nH]c(=O)nc-3n(C[C@H](O)[C@H](O)[C@H](O)CO)c2cc1C [Riboflavin] | 2.23 | 107 | 2.09 | 100 |  |  |  |  |  |  |  | 
O=C(O)CCCC[C@@H]1SC[C@@H]2NC(=O)N[C@@H]21 [Biotin] | 0.185 | 105 | 0.176 | 100 |  |  |  |  |  |  |  | 
Cyanocobalamine | 0.0158 | 97 | 0.0163 | 100 | 0.171 | 86 | 0.199 | 100 | 0.173 | 82 | 0.21 | 100
